Experimental findings from patent US20240300893A1, “SMALL MOLECULE COMPOUNDS TARGETING SRSF6 PROTEIN AND THEIR PREPARATION METHODS AND APPLICATIONS” (CHINA PHARMACEUTICAL UNIVERSITY, priority 2021, published 2024) are described below.

For assay [1], the system named is RKO cells. Nature of the assay: Inhibitory effect on RKO cells (cell survival rate at 48 h). The assay is classed as cell-based, Human. To be noted: procedures as for SW620, 48 h, read-out: IC50, inhibitory effects on RKO cells. On the procedure:
(§1) Compound I was prepared with the same concentration gradient for primary screening, and compounds with lower IC50 than indacaterol were screened for secondary screening with concentration gradients of 1, 2, 4, and 8 μM.
(§2) Both rounds of screening were performed on the colorectal cancer cell line SW620 with an initial cell number of 5000 cells per well, and the cell survival rate at 48 h was determined directly to determine the IC50 of the compound.
(§3) Cell viability=[(reading of experimental group−reading of blank group)/(reading of control group−reading of blank group)]×100%.

In assay [2] the test system is SW620 cells. Nature of the assay: Inhibitory effect on SW620 cells (cell survival rate at 48 h). The assay is classed as cell-based. Conditions: read-out: IC50, inhibitory effects on SW620 cells. On the procedure: as §1, §2, §3
Assay [3] deals with HT29 cells. In words: Inhibitory effect on HT29 cells (cell survival rate at 48 h). The assay is classed as cell-based, Human. To be noted: HT29, procedures as for SW620, 48 h, read-out: IC50, inhibitory effects on HT29 cells. On the procedure: as §1, §2, §3
For assay [4], the target named is T1, SRSF6 protein (Homo sapiens, UniProt Q13247).
T1 sequence (Q13247 1-183): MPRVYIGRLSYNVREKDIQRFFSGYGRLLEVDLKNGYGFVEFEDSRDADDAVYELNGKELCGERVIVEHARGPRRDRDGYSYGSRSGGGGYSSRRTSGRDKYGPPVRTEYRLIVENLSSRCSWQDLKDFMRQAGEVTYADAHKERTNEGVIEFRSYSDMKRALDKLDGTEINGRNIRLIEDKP
In words: SRSF6 protein thermal shift assay. The assay is classed as binding. To be noted: for migration of SRSF6 protein compared with DMSO: in words. The text has this: SRSF proteins play an important role in the regulation of gene expression, including constitutive splicing, alternative splicing, mRNA nuclear export and translation. SRSF proteins can be divided into two groups according to the number of RRM domains. Among them, SRSF6 has RRM1 and RRM2 domains. The RRM1 domain contains conserved sequences of RNP-1 and RNP-2, which can bind to related mRNAs. However, the RRM2 domain contains the evolutionarily conserved SWQDLKD heptapeptide sequence. RRM1 and RRM2 domains play irreplaceable roles in the specific recognition of alternative splice sites. Overexpression of SRSF6 induced colorectal carcinogenesis by binding to cell adhesion factor ZO-1, while indacaterol was validated to inhibit tumor development. Therefore, RRM1 and RRM2 domains of SRSF6 were extracted and the binding ability of compound I1 to SRSF6 was investigated by protein thermal shift assay using LYW1 as a reference.
We used DMSO as the blank group, and 56.5 μM SRSF6 protein was added to the PCR tube with LYW1 and I1 at a concentration of 1:10, respectively. After TS dye was added in the dark, the thermal migration assay was performed.

The mark [5] stands for this setting: Homo sapiens, SW-620, 48 h, SW620, 5000 cells per well.

Read-outs that look alike come from different tables or passages of the source.

Take `CCc1cc2c(cc1CC)CC(NC[C@H](O)c1ccc(O)c3[nH]c(=O)ccc13)C2` [Indacaterol, reference compound]: the IC50 was 10 to 15 µM in assay [1] (Homo sapiens, 48 h); 12.8 µM in assay [1]; 20 to 25 µM in assay [2] (setting [5]); 23.1 µM in assay [2] (SW620, 5000 cells per well); 12.7 µM in assay [3]; 10 to 15 µM in assay [3] (Homo sapiens, HT-29, 48 h).

As to `CCc1cc2c(cc1CC)CC(NC[C@@H](O)c1ccc(OCc3c(F)c(F)c(F)c(F)c3F)c3[nH]c(=O)ccc13)C2` [Compound I11, (S)-5-(2-((5,6-diethyl-2,3-dihydro-1H-inden-2-yl)amino)-1-hydroxyethyl)-8-((perfluorophenyl)methoxy)quinolin-2(1H)-one], the IC50 in assay [2] (setting [5]) came out at 6.09 µM.

Take `CCc1cc2c(cc1CC)CC(NC[C@H](O)c1ccc(OCc3ccccc3)c3[nH]c(=O)ccc13)C2` [LYW1, reference compound]: the IC50 in assay [1] (Homo sapiens, 48 h) was determined as 2.03 µM; in assay [2] (setting [5]), 3.54 µM; in assay [3] (Homo sapiens, HT-29, 48 h), 2.43 µM. Besides, the “migration of SRSF6 protein compared with DMSO” value in assay [4] is on record as “negative migration”.

`CCc1cc2c(cc1CC)CC(NC[C@@H](O)c1ccc(OCc3ccc(F)c(F)c3)c3[nH]c(=O)ccc13)C2` [Compound I10, (S)-5-(2-((5,6-diethyl-2,3-dihydro-1H-inden-2-yl)amino)-1-hydroxyethyl)-8-((3,4-difluorobenzyl)oxy)quinolin-2(1H)-one]: in assay [2] (setting [5]), the IC50 stood at 4.18 µM.

As to `CCc1cc2c(cc1CC)CC(NC[C@H](O)c1ccc(OCc3ccc(C)cc3)c3[nH]c(=O)ccc13)C2` [Compound I5, (R)-5-(2-((5,6-diethyl-2,3-dihydro-1H-inden-2-yl)amino)-1-hydroxyethyl)-8-((4-methylbenzyl)oxy)quinolin-2(1H)-one], the IC50 in assay [2] (setting [5]) stood at 2.98 µM.

With `CCc1cc2c(cc1CC)CC(NC[C@@H](O)c1ccc(OCc3ccc(F)cc3)c3[nH]c(=O)ccc13)C2` [Compound I1, (S)-5-(2-((5,6-diethyl-2,3-dihydro-1H-inden-2-yl)amino)-1-hydroxyethyl)-8-((4-fluorobenzyl)oxy)quinolin-2(1H)-one], the half-maximal inhibitory concentration (IC50) in assay [1] (Homo sapiens) is 1.42 µM; in assay [2] (Homo sapiens, SW-620, SW620, 5000 cells per well), 3.12 µM; in assay [3] (Homo sapiens, HT-29) it was 1.42 µM. For the same compound, in assay [4] (compared with LYW1, in words), the “binding effect with SRSF6 protein” value is “better binding effect”. The “migration of SRSF6 protein compared with DMSO” value in assay [4] is given as “negative migration”.

`CCc1cc2c(cc1CC)CC(NC[C@@H](O)c1ccc(OCc3cc(F)cc(F)c3)c3[nH]c(=O)ccc13)C2` [Compound I9, (S)-5-(2-((5,6-diethyl-2,3-dihydro-1H-inden-2-yl)amino)-1-hydroxyethyl)-8-((3,5-difluorobenzyl)oxy)quinolin-2(1H)-one]: the IC50 in assay [2] (setting [5]) was determined as 3.15 µM.

For the compound `CCc1cc2c(cc1CC)CC(NC[C@H](O)c1ccc(OCc3cccc(F)c3)c3[nH]c(=O)ccc13)C2` [Compound I7, (R)-5-(2-((5,6-diethyl-2,3-dihydro-1H-inden-2-yl)amino)-1-hydroxyethyl)-8-((3-fluorobenzyl)oxy)quinolin-2(1H)-one], the IC50 in assay [1] (Homo sapiens, 48 h) worked out at 3.11 µM; in assay [2] (setting [5]), 2.73 µM; in assay [3] (Homo sapiens, HT-29, 48 h) it was 2.66 µM.

With `CCc1cc2c(cc1CC)CC(NC[C@@H](O)c1ccc(OCc3cccc(F)c3)c3[nH]c(=O)ccc13)C2` [Compound I6, (S)-5-(2-((5,6-diethyl-2,3-dihydro-1H-inden-2-yl)amino)-1-hydroxyethyl)-8-((3-fluorobenzyl)oxy)quinolin-2(1H)-one], the IC50 in assay [2] (setting [5]) worked out at 3.06 µM.

Turning to `CCc1cc2c(cc1CC)CC(NC[C@H](O)c1ccc(OCc3ccc(F)cc3)c3[nH]c(=O)ccc13)C2` [Compound I2, (R)-5-(2-((5,6-diethyl-2,3-dihydro-1H-inden-2-yl)amino)-1-hydroxyethyl)-8-((4-fluorobenzyl)oxy)quinolin-2(1H)-one], the IC50 is 5.56 µM in assay [1] (Homo sapiens, 48 h); 8.62 µM in assay [2] (setting [5]); 4.69 µM in assay [3] (Homo sapiens, HT-29, 48 h).

Turning to `CCc1cc2c(cc1CC)CC(NC[C@@H](O)c1ccc(OCc3ccc(C)cc3)c3[nH]c(=O)ccc13)C2` [Compound I4, (S)-5-(2-((5,6-diethyl-2,3-dihydro-1H-inden-2-yl)amino)-1-hydroxyethyl)-8-((4-methylbenzyl)oxy)quinolin-2(1H)-one], in assay [2] (setting [5]), the IC50 stood at 2.9 µM.

The IC50 is the midpoint of a concentration-inhibition curve.
